The test deals with T1, PHD2 (Homo sapiens, UniProt Q9GZT9).
T1 construct: FLAG-tagged full length PHD2expressed in and purified from baculovirus-infected Sf9 cells; FLAG; made in house; host or cells: baculovirus-infected Sf9 cells
The test can be described thus: Assay for HIF-PHD2 Catalytic Activity (time resolved fluorescence, VHL complex detection). In kind it is biochemical. Conditions: FLAG-tagged full length PHD2; 0.2 μM 2-oxoglutarate, 0.5 μM HIF-1α peptide; read-out: PHD2 Binding Activity IC50. On the procedure:
Assay for HIF-PHD2Catalytic Activity To each well of a 96-well plate was added 1 μL of test compound in DMSO and 20 μl of assay buffer (50 mM Tris pH 7.4/0.01% Tween-20/0.1 mg/ml bovine serum albumin/10 μM ferrous sulfate/1mM sodium ascorbate/20 μg/ml catalase) containing 0.15 μg/ml FLAG-tagged full length PHD2expressed in and purified from baculovirus-infected Sf9 cells. After a 30 min preincubation at room temperature, the enzymatic reactions were initiated by the addition of 4 μL of substrates (final concentrations of 0.2 μM 2-oxoglutarate and 0.5 μM HIF-1α peptide biotinyl-DLDLEMLAPYJPMDDDFQL).

Each structure is given as a SMILES string. A value given as a limit tells only on which side of the number the result lay.

T1 sequence (Q9GZT9 whole entry): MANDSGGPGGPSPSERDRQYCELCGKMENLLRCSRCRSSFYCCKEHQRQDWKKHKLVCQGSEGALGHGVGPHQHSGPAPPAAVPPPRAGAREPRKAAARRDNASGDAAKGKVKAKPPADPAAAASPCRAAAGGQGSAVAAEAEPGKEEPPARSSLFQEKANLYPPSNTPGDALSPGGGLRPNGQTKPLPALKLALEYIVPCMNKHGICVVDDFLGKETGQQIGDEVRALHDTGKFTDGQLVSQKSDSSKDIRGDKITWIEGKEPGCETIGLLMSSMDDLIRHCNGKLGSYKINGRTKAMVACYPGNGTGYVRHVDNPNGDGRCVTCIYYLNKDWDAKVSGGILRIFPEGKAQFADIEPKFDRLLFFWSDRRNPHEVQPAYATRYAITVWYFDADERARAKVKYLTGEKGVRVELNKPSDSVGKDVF

Regarding `O=C(O)CNC(=O)c1c(O)c2c(n(Cc3ccc(-c4cc(Cl)cc(Cl)c4)nc3)c1=O)COC2` [Example 42, N-[(1-{[6-(3,5-dichlorophenyl)pyridin-3-yl]methyl}-4-hydroxy-2-oxo-1,2,5,7-tetrahydrofuro[3,4-b]pyridin-3-yl)carbonyl]glycine], the IC50 is less than 10 nM.

In the case of `Cn1cc(-c2ccc(Cn3c4c(c(O)c(C(=O)NCC(=O)O)c3=O)COC4)cn2)cn1` [Example 43, N-[(4-hydroxy-1-{[6-(1-methyl-1H-pyrazol-4-yl)pyridin-3-yl)methyl}-2-oxo-1,2,5,7-tetrahydrofuro[3,4-b]pyridin-3-yl)carbonyl]glycine], the IC50 is less than 10 nM.

As to `O=C(O)CNC(=O)c1c(O)c2c(n(Cc3ccc(-c4ccc(F)cc4F)nc3)c1=O)COC2` [Example 44, N-[(1-{[6-(2,4-difluorophenyl)pyridin-3-yl]methyl}-4-hydroxy-2-oxo-1,2,5,7-tetrahydrofuro[3,4-b]pyridin-3-yl)carbonyl]glycine], the IC50 is less than 10 nM.

For `O=C(O)CNC(=O)c1c(O)c2c(n(Cc3ccc(-c4cc(F)ccc4F)nc3)c1=O)COC2` [Example 45, N-[(1-{[6-(2,5-difluorophenyl)pyridin-3-yl]methyl}-4-hydroxy-2-oxo-1,2,5,7-tetrahydrofuro[3,4-b]pyridin-3-yl)carbonyl]glycine], the IC50 is less than 10 nM.

As for `O=C(O)CNC(=O)c1c(O)c2c(n(Cc3ccc(-c4ccccc4OCC(F)(F)F)nc3)c1=O)COC2` [Example 46], the IC50 was less than 10 nM.

`O=C(O)CNC(=O)c1c(O)c2c(n(Cc3ccc(-c4ccccc4C(F)(F)F)nc3)c1=O)COC2` [Example 47, N-{[4-hydroxy-2-oxo-1-({6-[2-(trifluoromethyl)phenyl]pyridin-3-yl}methyl)-1,2,5,7-tetrahydrofuro[3,4-b]pyridin-3-yl]carbonyl}glycine]: the IC50 was less than 10 nM.

For `O=C(O)CNC(=O)c1c(O)c2c(n(Cc3ccc(-c4ccccc4OC(F)(F)F)nc3)c1=O)COC2` [Example 48, N-{[4-hydroxy-2-oxo-1-({6-[2-(trifluoromethoxy)phenyl]pyridin-3-yl}methyl)-1,2,5,7-tetrahydrofuro[3,4-b]pyridin-3-yl]carbonyl}glycine], the IC50 was less than 10 nM.

Turning to `O=C(O)CNC(=O)c1c(O)c2c(n(Cc3ccc(-c4ccccc4F)nc3)c1=O)COC2` [Example 49, N-[(1-{[6-(2-fluorophenyl)pyridin-3-yl]methyl}-4-hydroxy-2-oxo-1,2,5,7-tetrahydrofuro[3,4-b]pyridin-3-yl)carbonyl]glycine], the IC50 was less than 10 nM.

As for `O=C(O)CNC(=O)c1c(O)c2c(n(Cc3ccc(-c4ccc(F)cc4Cl)nc3)c1=O)COC2` [Example 50, N-[(1-{[6-(2-chloro-4-fluorophenyl)pyridin-3-yl]methyl}-4-hydroxy-2-oxo-1,2,5,7-tetrahydrofuro[3,4-b]pyridin-3-yl)carbonyl]glycine], the IC50 was less than 10 nM.

Take `O=C(O)CNC(=O)c1c(O)c2c(n(Cc3cnc(-c4ccc(F)cc4F)cn3)c1=O)COC2` [Example 51, N-[(1-{[5-(2,4-difluorophenyl)pyrazin-2-yl]methyl}-4-hydroxy-2-oxo-1,2,5,7-tetrahydrofuro[3,4-b]pyridin-3-yl)carbonyl]glycine]: the IC50 is less than 10 nM.

Consider `O=C(O)CNC(=O)c1c(O)c2c(n(Cc3cnc(-c4ccc(F)c(F)c4)cn3)c1=O)COC2` [Example 52, N-[(1-{[5-(3,4-difluorophenyl)pyrazin-2-yl]methyl}-4-hydroxy-2-oxo-1,2,5,7-tetrahydrofuro[3,4-b]pyridin-3-yl)carbonyl]glycine], for which the IC50 is less than 10 nM.

Take `O=C(O)CNC(=O)c1c(O)c2c(n(Cc3cnc(-c4ccccc4Cl)cn3)c1=O)COC2` [Example 53, N-[(1-{[5-(2-chlorophenyl)pyrazin-2-yl]methyl}-4-hydroxy-2-oxo-1,2,5,7-tetrahydrofuro[3,4-b]pyridin-3-yl)carbonyl]glycine]: the IC50 was less than 10 nM.

With `O=C(O)CNC(=O)c1c(O)c2c(n(Cc3cnc(-c4ccccc4OC(F)(F)F)cn3)c1=O)COC2` [Example 54, N-[(1-{[5-(2-trifluoromethoxyphenyl)pyrazin-2-yl]methyl}-4-hydroxy-2-oxo-1,2,5,7-tetrahydrofuro[3,4-b]pyridin-3-yl)carbonyl]glycine], the IC50 was less than 10 nM.
